# In patent US8193213B2, “Spermicidal and/or antifungal composition and methods of using the same” (priority 2003, dated 2012):
# Marks after values point to notes of the source that are not given here.
# Assays:
# adult male Swiss mice = assay: Antispermatogenic screen: single gavage dose to male mice, testes weight and Spermatogenic Index at 72 h; format: in vivo; conditions: racemic compounds, day 3 (72 h), vehicle 90% water, 7% Tween20, 3% ethanol
# Method: The compounds of the invention were tested in mice for their effects on spermatogenesis three days after a single oral dose by the procedure described in Cook et al (1995) below. Compounds active in this test have been shown also to be anti-fertility compounds.
# Compounds were screened for antispermatogenic activity by dosing male mice on day 1 with a gavage dose of control vehicle, positive control (compound 1) or compound of the invention. At 72 h after dosing, animals were killed and the testes were excised, trimmed of fat, and weighed. One testis was examined histologically and rated for spermatogenic potential using the Spermatogenic Index (J. M. Whitsett, P. F. Noden, J. Cherry and A. D. Lawton, J. Reprod. Fertil., 72, 277 (1984), which is a semiquantitative estimate of the sperm producing ability of the testes The index is based on histological appearance of the spermatogenic cells in the seminiferous tubules. A scale of 1 to 6 is used with 5 to 6 being the normal status. A second assessment was based on the weight of the testes.
# Tables 1 and 2 show pertinent biological results in terms of the change in testes weight (TW) and spermatogenic index (SI) relative to a control containing only the administration vehicle, but no indenopyridine. In Tables 1 and 2, R^3 and R^4 refer to structures Ib, where R^3 is in the para position; R^1 is ethyl; R^2 is methyl; and R^5 is hydrogen.
# Candida albicans = assay: Antifungal susceptibility testing (NCCLS, MIC/MFC) against C. albicans; format: cell-based; design: Lowest [Active]: unit not given here; conditions: for CFU for MFC at 100 / CFU for MFC at 200 / CFU for MFC at 300 / Lowest [Active]: C. albicans (19 hours); for CFU for MFC at 100: concentration 100; for CFU for MFC at 200: concentration 200; for CFU for MFC at 300: concentration 300; for Lowest [Active]: concentrations 300, 200, 100, unit not given, N/A = no active concentration; for Lowest MIC: C. albicans, lowest concentration that appears to have no growth
# Method: (§1) Antifungal susceptibility testing was performed following the NCCLS guidelines with minor modifications. Briefly, a suspension of Candida albicans cells was prepared from pure cultures grown overnight on yeast-malt extract (YM) agar at 35° C. Several small colonies were removed from a YM agar plate and transferred to 5 ml of 0.85% saline. The cells were suspended by 15 seconds of vortexing and the cell density of the resulting suspension was determined using a spectrophotometer. The cell density was adjusted by addition of 0.85% saline until the transmittance matched that of a 0.5 McFarland standard when measured at a wavelength of 530 nm. An aliquot of this suspension was diluted 1:1000 in RPMI-MOPS to yield a working suspension. A similar suspension of Aspergillus fumigatus spores was obtained by using spores stored at […] in 0.85% saline. These spores were diluted in 0.85% saline to match the McFarland standard transmittance. This suspension was then further diluted 1:50 in RPMI-MOPS to produce the working inoculum suspension.
# (§2) Dilution series of the test compounds were made in RPMI-MOPS containing 2% DMSO. An aliquot of each dilution was added in duplicate to the wells of a sterile 96-well, flat bottom microtiter plate. Then, an aliquot of either the C. albicans cell suspension or the A. fumigatus spore suspension were added to each well for a final volume of 200 μl. The plates were then incubated at […]. […] A similar determination was made for the A. fumigatus plates after 48 hours. […] The numbers of colony forming units (CFU) were counted and these values used to calculate the percent survival of cells or spores in inocula relative to the number of CFUs in the working inoculum suspension. The minimum fungicidal concentration (MFC) was the lowest concentration of test compound with a percent survival of less than 2%.
# Aspergillus fumigatus = assay: Antifungal susceptibility testing (NCCLS, MIC/MFC) against A. fumigatus; format: cell-based; design: Lowest [Active]: unit not given here; conditions: for CFU for MFC at 100 / CFU for MFC at 200 / CFU for MFC at 300 / Lowest [Active]: A. fumigatus (48 hours); for CFU for MFC at 100: concentration 100; for CFU for MFC at 200: concentration 200; for CFU for MFC at 300: concentration 300; for Lowest [Active]: concentrations 300, 200, 100, unit not given, N/A = no active concentration; for Lowest MIC: lowest concentration that appears to have no growth
# Method: as §1, §2
# rabbit ejaculated sperm = assay: Direct effect on sperm motility, rabbit ejaculated sperm; format: cell-based; conditions: for Motility (%) at 60 Minutes: rabbit ejaculate diluted 1:10, 34° C., control 76.6
# Method: (§3) Method for Determining Direct Effect of an Agent on Sperm Motility The direct effect of an agent on sperm motility was determined by using the following protocols. Basically, sperm are obtained either from the cauda epididymis, as in the case of the rat, or ejaculated sperm collected using an artificial vagina, as in the rabbit. The initial motility of the sperm is determined manually or by using a Hamilton Thorn IVOS sperm analyzer. The sperm are then kept at a constant temperature of 34° C., diluted to a consistent concentration of 10×10^6/ml, and added to about 3 ml of buffer or media. The motility is determined again at this point and any change is recorded. Different concentrations of the agent to be tested are then added to the sperm preparation. The sperm samples are then held at the same temperature for one hour and the motility is determined. The results are recorded as the percent of motile sperm in the sample. The Sperm were kept at 34° C. throughout the experimental period. Sperm concentration was be approximately 10×10^6/ml (note, the sample may have had to be diluted with buffer or media to reach this concentration). For the Rabbit Studies: (Using Ejaculated Sperm) A 1 mM stock of the indenopyridine in M-199 media with BSA (2.5 mg in 5=0.5 ug/ul; 0.5 ug/ml=1 uM) was prepared and added as follows: 1 uM=1 ul stock+949 ul M-199 media with BSA+50 ul of the diluted sperm 3 uM=3 ul stock+947 ul M-199 media with BSA+50 ul of the diluted sperm 10 uM=10 ul stock+940 ul M-199 media with BSA+50 ul of the diluted sperm 30 uM=30 ul stock+920 ul M-199 media with BSA+50 ul of the diluted sperm 100 uM=100 ul stock+850 ul M-199 media with BSA+50 ul of the diluted sperm 300 uM=300 ul stock+650 ul M-199 media with BSA+50 ul of the diluted sperm 1000 uM=1000 ul stock+50 ul of the diluted sperm Sperm motility was determined after 1 hour. Slides were made to determine morphology changes and eosin was added to determine cell death.
# rat cauda sperm = assay: Direct effect on sperm motility, rat cauda epididymis sperm; format: cell-based; conditions: control: progressive motility
# Method: as §3, with “the Rat” for “the Rabbit”, “(Using Sperm from the Cauda Epididymis)” for “(Using Ejaculated Sperm)”, “in HBSS buffer+BSA (5” for “in M-199 media with BSA (2.5”, “in 10=0.5” for “in 5=0.5”, “ul HBSS buffer+BSA+50” for “ul M-199 media with BSA+50”, “Sperm Motility” for “Sperm motility”
compound,measurement,setting,value
CCN1CC[C@@H]2[C@@H](c3ccc(C(=O)OC)cc3)c3cc(C)ccc3[C@@H]2C1.Cl (racemic),melting point,,204 °C
"CCN1CC[C@@H]2[C@@H](c3ccc(C(=O)O)cc3)c3cc(C)ccc3[C@@H]2C1.Cl (racemic) [Compound 2, (4aRS,5SR,9bRS)-2-Ethyl-2,3,4,4a,5,9b-hexahydro-7-methyl-5-(4-carboxyphenyl)-1H-indeno[1,2-c]pyridine Hydrochloride]","SI change (%) (Spermatogenic Index, % change from vehicle control)",adult male Swiss mice; 10 mg/kg single gavage dose,−24%*
same,"TW change (%) (testes weight, % change from vehicle control)",adult male Swiss mice; 10 mg/kg single gavage dose,2%
same,"SI change (%) (Spermatogenic Index, % change from vehicle control)",adult male Swiss mice; 30 mg/kg single gavage dose,−52%*
same,"TW change (%) (testes weight, % change from vehicle control)",adult male Swiss mice; 30 mg/kg single gavage dose,−7%
same,melting point,,280 °C (dec.)
"CCN1CC[C@@H]2[C@@H](c3ccc(C(=O)OC)cc3)c3cc(C)c(I)cc3[C@@H]2C1.Cl (racemic) [Compound 18, (4aRS,5SR,9bRS)-2-Ethyl-2,3,4,4a,5,9b-hexahydro-8-iodo-7-methyl-5-(4-carbomethoxyphenyl)-1H-indeno[1,2-c]pyridine Hydrochloride]","SI change (%) (Spermatogenic Index, % change from vehicle control)",adult male Swiss mice; 1 mg/kg single gavage dose,−57%*
same,"TW change (%) (testes weight, % change from vehicle control)",adult male Swiss mice; 1 mg/kg single gavage dose,−16%
same,"SI change (%) (Spermatogenic Index, % change from vehicle control)",adult male Swiss mice; 3 mg/kg single gavage dose,−69%*
same,"TW change (%) (testes weight, % change from vehicle control)",adult male Swiss mice; 3 mg/kg single gavage dose,−27%*
same,"SI change (%) (Spermatogenic Index, % change from vehicle control)",adult male Swiss mice; 10 mg/kg single gavage dose,−74%*
same,"TW change (%) (testes weight, % change from vehicle control)",adult male Swiss mice; 10 mg/kg single gavage dose,−36%*
same,melting point,,> 190 °C (dec.)
CCN1CCC2C(C1)c1cc(I)c(C)cc1C2c1ccc(C(=O)OC)cc1.Cl (stereo not drawn) [Compound 4587-073d],CFU for MFC at 100,Candida albicans,"Static (Static = well looked clear, but <98% killed)"
same,CFU for MFC at 200,Candida albicans,Cidal (Cidal = >98% killed)
same,CFU for MFC at 300,Candida albicans,Cidal (Cidal = >98% killed)
same,Lowest [Active],Candida albicans,100
same,CFU for MFC at 100,Aspergillus fumigatus,Cidal (Cidal = >98% killed)
same,CFU for MFC at 200,Aspergillus fumigatus,Cidal (Cidal = >98% killed)
same,CFU for MFC at 300,Aspergillus fumigatus,Cidal (Cidal = >98% killed)
same,Lowest [Active],Aspergillus fumigatus,100
CCN1CCC2C(C1)c1cc(I)c(C)cc1C2c1ccc(C(=O)OC)cc1.Cl (stereo not drawn) [Compound 4587-073l],Motility (%) at 60 Minutes,rabbit ejaculated sperm; +1 μM,73.0%
same,Motility (%) at 60 Minutes,rabbit ejaculated sperm; +3 μM,68.4%
same,Motility (%) at 60 Minutes,rabbit ejaculated sperm; +10 μM,67.6%
same,Motility (%) at 60 Minutes,rabbit ejaculated sperm; +30 μM,61.9%
same,Motility (%) at 60 Minutes,rabbit ejaculated sperm; +100 μM,15.2 * %
same,Motility (%) at 60 Minutes,rabbit ejaculated sperm; +300 μM,0%
same,Motility (%) at 60 Minutes,rabbit ejaculated sperm; +1000 μM,0 ** %
same,Quality of motility (footnote *),"rabbit ejaculated sperm; rabbit sperm, +100 μM, 60 minutes",* Motility not progressive - twitching
same,Sperm appearance,"rabbit ejaculated sperm; rabbit sperm, +1000 μM, 60 minutes",** Sperm appeared to be “disintegrating”- sperm heads contain many vacuoles and membranes are not always intact
same,Motility (%) at 60 Minutes (in words),rat cauda sperm; +1 μM,Progressive motility-equal to control
same,Motility (%) at 60 Minutes (in words),rat cauda sperm; +3 μM,Progressive motility diminished
same,Motility (%) at 60 Minutes (in words),rat cauda sperm; +10 μM,No progressive motility - twitching
same,Motility (%) at 60 Minutes (in words),rat cauda sperm; +30 μM,Same as for 10 μM
same,Motility (%) at 60 Minutes (in words),rat cauda sperm; +100 μM,Death
same,CFU for MFC at 100,Candida albicans,Cidal (Cidal = >98% killed)
same,CFU for MFC at 200,Candida albicans,Cidal (Cidal = >98% killed)
same,CFU for MFC at 300,Candida albicans,Cidal (Cidal = >98% killed)
same,Lowest [Active],Candida albicans,100
same,CFU for MFC at 100,Aspergillus fumigatus,Cidal (Cidal = >98% killed)
same,CFU for MFC at 200,Aspergillus fumigatus,Cidal (Cidal = >98% killed)
same,CFU for MFC at 300,Aspergillus fumigatus,Cidal (Cidal = >98% killed)
same,Lowest [Active],Aspergillus fumigatus,100
CCN1CCC2=C(c3ccc(OC)cc3)c3cc(C)ccc3C2C1.Cl (stereo not drawn) [Compound 4587-082],Lowest MIC,Candida albicans,>100 µg/mL
same,Lowest MIC,Aspergillus fumigatus; A. fumigatus,100 µg/mL
same,Lowest MFC,"Aspergillus fumigatus; A. fumigatus, lowest concentration that kills >= 98% of the cells in the well",100 µg/mL
"CC(=O)N1CCN(c2ccc(OCC3COC(Cn4ccnc4)(c4ccc(Cl)cc4Cl)O3)cc2)CC1 (stereo not drawn) [Ketaconazole, reference compound]",Lowest MIC,Candida albicans,32 µg/mL
same,Lowest MIC,Aspergillus fumigatus; A. fumigatus,8 µg/mL
